Source: patent US9695155B2, “Herbicidal substituted pyrimidinyloxy benzene compounds” (E. I. DU PONT DE NEMOURS AND COMPANY, priority 2013, dated 2017)

Tests used:
giant foxtail = experiment: Test C postemergence; assay type: in vivo, Setaria faberii; settings: for Foxtail, Giant plant response rating: 31 g ai/ha; for Foxtail, Giant plant response rating / Plant response rating, Foxtail, Giant: scale 0 to 100 (0 no effect, 100 complete control)
Method in brief: (§1)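 Visual injury score versus untreated controls, 0 = no effect, 100 = complete control, taken 13 to 15 days after treatment in the greenhouse. Pre-emergence pots held loam/sand; post-emergence plants grew in sphagnum peat/vermiculite mix and were sprayed at the 1- to 4-leaf stage.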

barnyardgrass [1] = experiment: Test B flooded paddy test; assay type: in vivo, Echinochloa crus-galli; settings: Flood, 250 g ai/ha; 0 to 100 scale where 0 is no effect and 100 is complete control
Method in brief: (§2)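 2-leaf stage plants; pots flooded to 3 cm, compound added to paddy water, depth maintained. Greenhouse 13–15 d. Visual rating vs untreated controls, 0 (no effect) to 100 (complete control); dash = no result.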

morningglory [2] = experiment: Test A preemergence; assay type: in vivo, Ipomoea spp.; settings: for Morningglory plant response rating (0 to 100 scale): 125 g ai/ha; for Morningglory plant response rating: 500 g ai/ha, 0 to 100 scale where 0 is no effect and 100 is complete control
Method in brief: (§3)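 Visual injury scored 0–100 (100 = complete control) against untreated controls about 10 days after treatment in a greenhouse. Test chemicals, formulated with surfactant in non-phytotoxic solvent, were sprayed on soil preemergence or on 2-10 cm, one- to two-leaf plants postemergence.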

corn [3] = experiment: Test A preemergence; assay type: in vivo, Zea mays; settings: for Plant response rating, Corn / Corn plant response rating: 0 to 100 scale where 0 is no effect and 100 is complete control; for Corn plant response rating: 500 g ai/ha
Method in brief: as §3

ragweed = experiment: Test C postemergence; assay type: in vivo, Ambrosia elatior; settings: for Ragweed plant response rating: 31 g ai/ha; for Ragweed plant response rating / Plant response rating, Ragweed: scale 0 to 100 (0 no effect, 100 complete control)
Method in brief: as §1

rice = experiment: Test B flooded paddy test; assay type: in vivo, Oryza sativa; settings: Flood, 250 g ai/ha; 0 to 100 scale where 0 is no effect and 100 is complete control
Method in brief: as §2

soybean = experiment: Test C postemergence; assay type: in vivo, Glycine max; settings: for Soybean plant response rating: 31 g ai/ha; for Soybean plant response rating / Plant response rating, Soybean: scale 0 to 100 (0 no effect, 100 complete control)
Method in brief: as §1

morningglory [4] = experiment: Test C postemergence; assay type: in vivo, Ipomoea coccinea; settings: for Morningglory plant response rating: 31 g ai/ha; for Morningglory plant response rating / Plant response rating, Morningglory: scale 0 to 100 (0 no effect, 100 complete control)
Method in brief: as §1

corn [5] = experiment: Test C postemergence; assay type: in vivo, Zea mays; settings: for Corn plant response rating: 31 g ai/ha; for Corn plant response rating / Plant response rating, Corn: scale 0 to 100 (0 no effect, 100 complete control)
Method in brief: as §1

wheat = experiment: Test A postemergence; assay type: in vivo, Triticum aestivum; settings: 0 to 100 scale where 0 is no effect and 100 is complete control; for Wheat plant response rating: 125 g ai/ha; for Plant response rating, Wheat: 500 g ai/ha
Method in brief: as §3

Heteranthera limosa = experiment: Test B flooded paddy test; assay type: in vivo; settings: Flood, 250 g ai/ha; 0 to 100 scale where 0 is no effect and 100 is complete control
Method in brief: as §2

yellow nutsedge = experiment: Test C postemergence; assay type: in vivo, Cyperus esculentus; settings: for Nutsedge, Yellow plant response rating: 31 g ai/ha; for Nutsedge, Yellow plant response rating / Plant response rating, Nutsedge, Yellow: scale 0 to 100 (0 no effect, 100 complete control)
Method in brief: as §1

large (Lg) crabgrass = experiment: Test A preemergence; assay type: in vivo, Digitaria sanguinalis; settings: for Plant response rating, Crabgrass, Large / Crabgrass, Large plant response rating: 0 to 100 scale where 0 is no effect and 100 is complete control; for Crabgrass, Large plant response rating: 500 g ai/ha
Method in brief: as §3

velvetleaf = experiment: Test A preemergence; assay type: in vivo, Abutilon theophrasti; settings: for Velvetleaf plant response rating (0 to 100 scale): 125 g ai/ha; for Velvetleaf plant response rating: 500 g ai/ha, 0 to 100 scale where 0 is no effect and 100 is complete control
Method in brief: as §3

wheat, winter = experiment: Test C postemergence; assay type: in vivo, Triticum aestivum; settings: for Wheat plant response rating: 31 g ai/ha; for Wheat plant response rating / Plant response rating, Wheat: scale 0 to 100 (0 no effect, 100 complete control)
Method in brief: as §1

barnyardgrass [6] = experiment: Test A postemergence; assay type: in vivo, Echinochloa crus-galli; settings: 0 to 100 scale where 0 is no effect and 100 is complete control; for Barnyardgrass plant response rating: 125 g ai/ha; for Plant response rating, Barnyardgrass: 500 g ai/ha
Method in brief: as §3

sedge, umbrella = experiment: Test B flooded paddy test; assay type: in vivo, Cyperus difformis; settings: Flood, 250 g ai/ha; 0 to 100 scale where 0 is no effect and 100 is complete control
Method in brief: as §2

[7] = 16 g ai/ha, postemergence, 0 is no effect, 100 is complete control
[8] = postemergence, visual rating, 13 to 15 days
[9] = 125 g ai/ha, postemergence, visual rating
[10] = Postemergence, 62 g ai/ha, 13 to 15 days

## Fc1cccc(Oc2ncc(Cl)cn2)c1-n1cc(Cl)cn1 [Compound 177]
Giant foxtail; [7]
  Plant response rating (0 to 100), Foxtail, Giant: 5
Giant foxtail; [8]
  Foxtail, Giant plant response rating: 10
Giant foxtail; [9]
  Plant response rating, Foxtail, Giant: 20
Giant foxtail; Postemergence, 62 g ai/ha
  Plant response rating, Foxtail, Giant: 10
Barnyardgrass [1]
  Plant response rating, Barnyardgrass: 30
Morningglory [2]
  Morningglory plant response rating (0 to 100 scale): 20
  Morningglory plant response rating: 80
Corn [3]; 125 g ai/ha
  Plant response rating, Corn: 0
Corn [3]
  Corn plant response rating: 50
ragweed; [7]
  Plant response rating (0 to 100), Ragweed: 10
ragweed; [8]
  Ragweed plant response rating: 15
ragweed; [9]
  Plant response rating, Ragweed: 60
ragweed; Postemergence, 62 g ai/ha
  Plant response rating, Ragweed: 55
rice
  Plant response rating, Rice: 15
soybean; [7]
  Plant response rating (0 to 100), Soybean: 45
soybean; [8]
  Soybean plant response rating: 65
soybean; [9]
  Plant response rating, Soybean: 95
soybean; Postemergence, 62 g ai/ha
  Plant response rating, Soybean: 85
Morningglory [4]; [7]
  Plant response rating (0 to 100), Morningglory: 20
Morningglory [4]; [8]
  Morningglory plant response rating: 10
Morningglory [4]; [9]
  Plant response rating, Morningglory: 85
Morningglory [4]; Postemergence, 62 g ai/ha
  Plant response rating, Morningglory: 80
Corn [5]; [7]
  Plant response rating (0 to 100), Corn: 5
Corn [5]; [8]
  Corn plant response rating: 5
Corn [5]; [9]
  Plant response rating, Corn: 10
Corn [5]; Postemergence, 62 g ai/ha
  Plant response rating, Corn: 10
wheat
  Wheat plant response rating: 20
  Plant response rating, Wheat: 90
Heteranthera limosa
  Plant response rating, Ducksalad: 90
Yellow nutsedge; [7]
  Plant response rating (0 to 100), Nutsedge, Yellow: 0
Yellow nutsedge; [8]
  Nutsedge, Yellow plant response rating: 5
Yellow nutsedge; [9]
  Plant response rating, Nutsedge, Yellow: 10
Yellow nutsedge; Postemergence, 62 g ai/ha
  Plant response rating, Nutsedge, Yellow: 5
Large (Lg) crabgrass; 125 g ai/ha
  Plant response rating, Crabgrass, Large: 100
Large (Lg) crabgrass
  Crabgrass, Large plant response rating: 100
velvetleaf
  Velvetleaf plant response rating (0 to 100 scale): 80
  Velvetleaf plant response rating: 100
wheat, winter; [7]
  Plant response rating (0 to 100), Wheat: 0
wheat, winter; [8]
  Wheat plant response rating: 0
wheat, winter; [9]
  Plant response rating, Wheat: 5
wheat, winter; Postemergence, 62 g ai/ha
  Plant response rating, Wheat: 0
Barnyardgrass [6]
  Barnyardgrass plant response rating: 40
  Plant response rating, Barnyardgrass: 100
sedge, umbrella
  Plant response rating, Sedge, Umbrella: 100

## FC(F)c1cccc(Oc2ncc(Br)cn2)c1-n1cc(C(F)(F)F)cn1 [Compound 163]
Giant foxtail; [7]
  Plant response rating (0 to 100), Foxtail, Giant: 5
Giant foxtail; [8]
  Foxtail, Giant plant response rating: 5
Giant foxtail; [9]
  Plant response rating, Foxtail, Giant: 10
Giant foxtail; Postemergence, 62 g ai/ha
  Plant response rating, Foxtail, Giant: 10
Barnyardgrass [1]
  Plant response rating, Barnyardgrass: 0
Morningglory [2]
  Morningglory plant response rating (0 to 100 scale): 0
  Morningglory plant response rating: 70
Corn [3]; 125 g ai/ha
  Plant response rating, Corn: 0
Corn [3]
  Corn plant response rating: 10
ragweed; [7]
  Plant response rating (0 to 100), Ragweed: 10
ragweed; [8]
  Ragweed plant response rating: 35
ragweed; [9]
  Plant response rating, Ragweed: 60
ragweed; Postemergence, 62 g ai/ha
  Plant response rating, Ragweed: 35
rice
  Plant response rating, Rice: 25
soybean; [7]
  Plant response rating (0 to 100), Soybean: 35
soybean; [8]
  Soybean plant response rating: 50
soybean; [9]
  Plant response rating, Soybean: 75
soybean; Postemergence, 62 g ai/ha
  Plant response rating, Soybean: 80
Morningglory [4]; [7]
  Plant response rating (0 to 100), Morningglory: 20
Morningglory [4]; [8]
  Morningglory plant response rating: 50
Morningglory [4]; [9]
  Plant response rating, Morningglory: 90
Morningglory [4]; Postemergence, 62 g ai/ha
  Plant response rating, Morningglory: 65
Corn [5]; [7]
  Plant response rating (0 to 100), Corn: 5
Corn [5]; [8]
  Corn plant response rating: 5
Corn [5]; [9]
  Plant response rating, Corn: 10
Corn [5]; Postemergence, 62 g ai/ha
  Plant response rating, Corn: 10
wheat
  Wheat plant response rating: 10
  Plant response rating, Wheat: 60
Heteranthera limosa
  Plant response rating, Ducksalad: 90
Yellow nutsedge; [7]
  Plant response rating (0 to 100), Nutsedge, Yellow: 5
Yellow nutsedge; [8]
  Nutsedge, Yellow plant response rating: 5
Yellow nutsedge; [9]
  Plant response rating, Nutsedge, Yellow: 5
Yellow nutsedge; Postemergence, 62 g ai/ha
  Plant response rating, Nutsedge, Yellow: 5
Large (Lg) crabgrass; 125 g ai/ha
  Plant response rating, Crabgrass, Large: 100
Large (Lg) crabgrass
  Crabgrass, Large plant response rating: 100
velvetleaf
  Velvetleaf plant response rating (0 to 100 scale): 20
  Velvetleaf plant response rating: 100
wheat, winter; [7]
  Plant response rating (0 to 100), Wheat: 0
wheat, winter; [8]
  Wheat plant response rating: 0
wheat, winter; [9]
  Plant response rating, Wheat: 5
wheat, winter; Postemergence, 62 g ai/ha
  Plant response rating, Wheat: 0
Barnyardgrass [6]
  Barnyardgrass plant response rating: 30
  Plant response rating, Barnyardgrass: 100
sedge, umbrella
  Plant response rating, Sedge, Umbrella: 90

## N#Cc1cnn(-c2c(C#N)cccc2Oc2ncc(Cl)cn2)c1 [Compound 200]
Giant foxtail; [8]
  Foxtail, Giant plant response rating: 5
Giant foxtail; [9]
  Plant response rating, Foxtail, Giant: 5
Giant foxtail; 250 g ai/ha, postemergence
  Plant response rating (0 to 100), Foxtail, Giant: 15
Giant foxtail; [10]
  Plant response rating, Foxtail, Giant: 5
Barnyardgrass [1]
  Plant response rating, Barnyardgrass: 20
Morningglory [2]
  Morningglory plant response rating (0 to 100 scale): 90
  Morningglory plant response rating: 100
Corn [3]; 125 g ai/ha
  Corn plant response rating (0 to 100 scale): 40
Corn [3]
  Corn plant response rating: 50
ragweed; [8]
  Ragweed plant response rating: 25
ragweed; [9]
  Plant response rating, Ragweed: 55
ragweed; 250 g ai/ha, postemergence
  Plant response rating (0 to 100), Ragweed: 85
ragweed; [10]
  Plant response rating, Ragweed: 40
rice
  Plant response rating, Rice: 20
soybean; [8]
  Soybean plant response rating: 90
soybean; [9]
  Plant response rating, Soybean: 95
soybean; 250 g ai/ha, postemergence
  Plant response rating (0 to 100), Soybean: 90
soybean; [10]
  Plant response rating, Soybean: 95
Morningglory [4]; [8]
  Morningglory plant response rating: 85
Morningglory [4]; [9]
  Plant response rating, Morningglory: 95
Morningglory [4]; 250 g ai/ha, postemergence
  Plant response rating (0 to 100), Morningglory: 95
Morningglory [4]; [10]
  Plant response rating, Morningglory: 80
Corn [5]; [8]
  Corn plant response rating: 5
Corn [5]; [9]
  Plant response rating, Corn: 15
Corn [5]; 250 g ai/ha, postemergence
  Plant response rating (0 to 100), Corn: 20
Corn [5]; [10]
  Plant response rating, Corn: 10
wheat
  Wheat plant response rating: 40
  Plant response rating, Wheat: 60
Heteranthera limosa
  Plant response rating, Ducksalad: 95
Yellow nutsedge; [8]
  Nutsedge, Yellow plant response rating: 5
Yellow nutsedge; [9]
  Plant response rating, Nutsedge, Yellow: 30
Yellow nutsedge; 250 g ai/ha, postemergence
  Plant response rating (0 to 100), Nutsedge, Yellow: 35
Yellow nutsedge; [10]
  Plant response rating, Nutsedge, Yellow: 5
Large (Lg) crabgrass; 125 g ai/ha
  Crabgrass, Large plant response rating (0 to 100 scale): 100
Large (Lg) crabgrass
  Crabgrass, Large plant response rating: 100
velvetleaf
  Velvetleaf plant response rating (0 to 100 scale): 100
  Velvetleaf plant response rating: 100
wheat, winter; [8]
  Wheat plant response rating: 0
wheat, winter; [9]
  Plant response rating, Wheat: 5
wheat, winter; 250 g ai/ha, postemergence
  Plant response rating (0 to 100), Wheat: 5
wheat, winter; [10]
  Plant response rating, Wheat: 0
Barnyardgrass [6]
  Barnyardgrass plant response rating: 80
  Plant response rating, Barnyardgrass: 90
sedge, umbrella
  Plant response rating, Sedge, Umbrella: 85
